From patent US20240425545A1 (Durect Corporation, priority 2021, published 2024)
Entries after “also recorded” stand apart in the source; their conditions may differ. Read-outs that look alike come from different tables or passages of the source.

Assays:
[1] = Dynamic vapor sorption (DVS); format: physicochemical; details: for Hygroscopicity: in words, up to about 95% relative humidity
Description: Dynamic vapor sorption data was collected on a Surface Measurement System DVS Intrinsic instrument. The samples were not dried prior to analysis. […] Data were not corrected for the initial moisture content of the sample.

[2] = 5 mL cylinder, 300 taps
Experimental: Although there are some variations in the method of determining the compressibility index and Hausner ratio, the basic procedure is to measure the unsettled apparent volume, VO, and the final tapped volume, Vf, of the powder after tapping the material until no further volume changes occur. The compressibility index and the Hausner ratio are calculated as follows: […]
Powder was carefully poured into a 5 mL glass graduated cylinder (to contain) until it was close to or at 5.0 mL. This initial volume was recorded as Vo. The graduated cylinder was tapped on a hard surface for 200 times and the volume was recorded. The cylinder was tapped 100 times more, and the final volume Vf was recorded.

[3] = Experimental: Angle of repose is measured as follows. Powder is poured from a funnel onto a flat surface until a cone of powder is created. The angle of repose is calculated according to the following equation: […]
The height of the cone was estimated with calipers.

[4] = remark: listed apart in the source
Experimental: Four vials were prepared and stored at 2-8° C. or […] according to Table B2. The samples were scheduled initially to pull for testing at 3 weeks and 6 weeks time points.
For appearance, each unopened vial was visually examined for color, clumping, and flowability.
Based on the molecular weights, and expected UV response factors used in this study, the expected analytical sample concentrations were within the range of the 25HC3S sodium reference standards (0.75 mg/mL to 1.25 mg/mL as 25HC3S Sodium Salt).
Samples were prepared by pipetting 20 mL of 100% methanol into each vial and mixing well, with sonication and vortexing to fully dissolve the samples for HPLC analysis.
HPLC analysis was performed.

SMILES | Weight gain (water uptake) in DVS ([1]; from 5% up to about 95% relative humidity) | Compressibility Index [2] | Hausner Ratio [2] | X-ray powder diffraction pattern after DVS ([1]; before vs after DVS, FIG. 3) | Hygroscopicity [1] | Hygroscopicity ([1]; listed as crystalline 25HC3S choline) | Angle of Repose ([3]; about 2 g powder, cone of 21.14 mm diameter) | Angle of Repose Rounded Whole Number ([3]; rounded) | Physical and chemical solid-state stability, comments [4] | Temperature stability [4] | % Recovery of 2-8° C./3 wk vs 60° C./1 wk; 2-8° C./5 wk vs 80° C./5 wk ([4]; 3 wk) | % Recovery of 2-8° C./3 wk vs 60° C./1 wk; 2-8° C./5 wk vs 80° C./5 wk ([4]; 5 wk)
C[C@H](CCCC(C)(C)O)[C@H]1CC[C@H]2[C@@H]3CC=C4C[C@@H](OS(=O)(=O)[O-])CC[C@]4(C)[C@H]3CC[C@]12C.[Na+] [crystalline 25HC3S sodium, reference compound] | significant water uptake |  |  |  |  |  |  |  |  |  |  | 
C[C@H](CCCC(C)(C)O)[C@H]1CC[C@H]2[C@@H]3CC=C4C[C@@H](OS(=O)(=O)[O-])CC[C@]4(C)[C@H]3CC[C@]12C.C[N+](C)(C)CCO [25HC3S choline, 25-Hydroxy-Cholest-5-En-3-Sulfate Choline] |  | 42 | 1.72 | does not appreciably change | less hygroscopic | not appreciably hygroscopic; also recorded: less hygroscopic | 34.9 degrees | 35 degrees | Stable after 5 weeks at 80 °C physically and | good temperature stability | 100.8% | 97.3%
